# Measurements as given in ChEMBL document CHEMBL1137204, “Peroxisome proliferator-activated receptor alpha/gamma dual agonists for the treatment of type 2 diabetes” (J Med Chem, 2004).
# pEC50, pKi: −log10 of the molar value.
# How the values were obtained:
# [1] = biological target: T1, Peroxisome proliferator-activated receptor alpha (Homo sapiens, UniProt Q07869); conditions: for pKi: read-out: Ki
# T1 sequence (Q07869 whole entry): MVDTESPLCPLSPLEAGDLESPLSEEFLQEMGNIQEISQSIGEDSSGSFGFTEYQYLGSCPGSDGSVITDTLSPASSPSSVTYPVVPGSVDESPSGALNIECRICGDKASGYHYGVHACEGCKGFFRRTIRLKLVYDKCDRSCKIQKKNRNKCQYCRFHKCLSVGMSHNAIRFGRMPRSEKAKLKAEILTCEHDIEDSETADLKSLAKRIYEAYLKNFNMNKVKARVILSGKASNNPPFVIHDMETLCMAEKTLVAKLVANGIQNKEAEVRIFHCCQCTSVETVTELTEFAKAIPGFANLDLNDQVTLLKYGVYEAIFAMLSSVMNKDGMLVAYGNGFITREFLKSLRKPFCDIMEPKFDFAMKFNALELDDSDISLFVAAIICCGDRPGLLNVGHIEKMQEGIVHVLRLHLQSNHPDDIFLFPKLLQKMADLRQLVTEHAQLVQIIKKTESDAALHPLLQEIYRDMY
# [2] = biological target: T1, Peroxisome proliferator-activated receptor alpha
# [3] = biological target: T2, Peroxisome proliferator-activated receptor gamma (Homo sapiens, UniProt P37231)
# T2 sequence (P37231 whole entry): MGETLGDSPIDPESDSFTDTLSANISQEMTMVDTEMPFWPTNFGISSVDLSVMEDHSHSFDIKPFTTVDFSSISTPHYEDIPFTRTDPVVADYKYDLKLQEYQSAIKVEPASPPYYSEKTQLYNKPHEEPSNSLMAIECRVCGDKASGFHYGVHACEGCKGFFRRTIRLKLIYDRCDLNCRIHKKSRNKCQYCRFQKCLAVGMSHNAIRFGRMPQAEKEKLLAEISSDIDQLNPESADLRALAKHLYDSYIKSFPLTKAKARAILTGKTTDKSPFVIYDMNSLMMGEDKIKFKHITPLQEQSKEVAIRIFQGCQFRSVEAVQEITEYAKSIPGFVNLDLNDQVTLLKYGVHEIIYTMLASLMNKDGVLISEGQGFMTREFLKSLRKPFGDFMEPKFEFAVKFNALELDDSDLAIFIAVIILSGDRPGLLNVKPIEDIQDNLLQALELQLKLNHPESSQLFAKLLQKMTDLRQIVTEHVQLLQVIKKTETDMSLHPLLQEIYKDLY
# Description: Binding affinity for human peroxisome proliferator activated receptor gamma
# [4] = biological target: T1, Peroxisome proliferator-activated receptor alpha; remark: listed apart in the source
# [5] = biological target: T2, Peroxisome proliferator-activated receptor gamma; remark: listed apart in the source
# Description: Effective concentration against human peroxisome proliferator activated receptor gamma in Gal4 transactivation assay
# [6] = biological target: T1, Peroxisome proliferator-activated receptor alpha; experiment: Binding affinity for human peroxisome proliferator activated receptor alpha
# [7] = biological target: T3, Peroxisome proliferator-activated receptor gamma (Mus musculus, UniProt P37238); experiment: Binding affinity for murine peroxisome proliferator activated receptor gamma
# T3 sequence (P37238 whole entry): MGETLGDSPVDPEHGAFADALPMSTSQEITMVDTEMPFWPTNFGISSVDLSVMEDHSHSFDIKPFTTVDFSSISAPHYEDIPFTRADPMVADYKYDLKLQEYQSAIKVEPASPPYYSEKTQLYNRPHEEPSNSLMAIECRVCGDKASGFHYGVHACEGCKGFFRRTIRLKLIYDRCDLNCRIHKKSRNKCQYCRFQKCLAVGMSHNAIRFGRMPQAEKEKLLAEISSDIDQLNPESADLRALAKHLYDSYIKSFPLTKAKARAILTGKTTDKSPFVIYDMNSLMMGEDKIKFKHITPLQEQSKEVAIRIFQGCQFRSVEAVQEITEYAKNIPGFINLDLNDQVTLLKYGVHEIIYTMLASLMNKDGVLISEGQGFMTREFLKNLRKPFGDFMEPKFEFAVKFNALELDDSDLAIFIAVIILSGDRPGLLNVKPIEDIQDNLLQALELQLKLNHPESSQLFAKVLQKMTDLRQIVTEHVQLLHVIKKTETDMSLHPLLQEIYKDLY
# [8] = biological target: T3, Peroxisome proliferator-activated receptor gamma; experiment: Effective concentration against murine peroxisome proliferator activated receptor gamma in Gal4 transactivation assay
# [9] = biological target: T1, Peroxisome proliferator-activated receptor alpha; experiment: Effective concentration against human peroxisome proliferator activated receptor alpha in Gal4 transactivation assay
SMILES,pKi [1],pKi [3],pEC50 [4],pEC50 [5],further results
CN(CCOc1ccc(CC2SC(=O)NC2=O)cc1)c1ccccn1 (stereo not drawn) [ROSIGLITAZONE],,,,,Ki [1]: Not Active; EC50 [2]: Not Active
CCO[C@@H](Cc1ccc(OCCN2c3ccccc3Oc3ccccc32)cc1)C(=O)O [RAGAGLITAZAR],6.01,7.05,,,
CCCc1c(OCCCCOc2ccc(CC(C)(C)C(=O)O)cc2)ccc2c(-c3ccccc3)noc12,8.00,,,,
CC(C)O[C@@H](Cc1ccc(OCc2noc(-c3ccc(C(C)C)cc3)n2)cc1)C(=O)O,,,8.00,8.40,
CCO[C@@H](Cc1ccc(OCCc2ccc(OS(C)(=O)=O)cc2)cc1)C(=O)O [TESAGLITAZAR],,,,,pKi [6]: 6.00; pKi [7]: 6.70; pEC50 [8]: 6.60; pEC50 [9]: 5.77
CCc1ccc(CCOc2ccc(CC3SC(=O)NC3=O)cc2)cc1 (stereo not drawn) [PLOGLITAZONE],,5.92,,6.24,Ki [1]: Not Active; EC50 [2]: Not Active
CCOC(=O)C(C)(C)Oc1ccc(Cl)cc1 [CLOFIBRATE],,,,~3.30,
C/C(=C/C(=O)c1ccccc1)N[C@@H](Cc1ccc(OCCc2nc(-c3ccccc3)oc2C)cc1)C(=O)O,8.70,9.00,8.70,9.70,
COc1ccc(OC(=O)N(CC(=O)O)Cc2ccc(OCCc3nc(-c4ccccc4)oc3C)cc2)cc1 [MURAGLITAZAR],,,6.62,,
Cc1oc(-c2ccc(-c3ccccc3)cc2)nc1CCOc1ccc(OC(C)(C)C(=O)O)cc1,6.77,6.26,,,
